Experimental data as given in US7381745B2, “Ligands for metabotropic glutamate receptors and inhibitors of NAALADase” (Georgetown University, priority 1999, dated 2008).
Where “and” joins values, the source holds several entries; their conditions need not be identical. Equal entries are not always repeated. Where two headings read alike, the source gives them in different places. Residues, ends and D or L forms follow the SMILES beside them.

Columns and labels:
[1] = molecular target: T1, mGluR3 (Rattus norvegicus, UniProt P31422); conditions: cited from earlier work
T1 construct: expressed in transfected cells

[2] = tested on: NMDA toxicity in mixed cultures of cortical neuronal-glial cells; experiment: NMDA toxicity model B: mixed cortical neuronal-glial cultures, LDH release; type: cell-based, mice
Method: (§1) We have tested the validity of these statements using three models of NMDA toxicity in cultures of cortical neurons prepared from fetal mice. The first model (A) consists of using a culture containing neurons without glial cells. NMDA (75 μM) is applied for 10 min without or with the tested compound. Then the culture medium is replaced and cells are left for 24 hours to develop toxicity. The second model (B) involves the use of mice cortical neurons which are seeded on a layer of confluent glial cells (mostly astrocytes) prepared from cerebral cortex of newborn mice. The incubations are identical as in model A. The third model (C) separates the neuronal and glial cultures. Glial cultures are treated with the tested neuroprotective compound in order to induce the release of protective factors into the medium. In parallel, cultures of cortical neurons (without glia) are treated for 10 min with NMDA (20 μM). Then NMDA is washed out and the neurons are treated with the medium collected from the treated glial cells. In all cases toxicity is assessed 24 hours after NMDA treatment by measurements of lactate dehydrogenase (LDH) activity accumulated in the medium during this period of time.

[3] = molecular target: NAALADase (Rattus norvegicus, UniProt P70627); experiment: NAALADase inhibition; type: biochemical; conditions: read-out: IC50 as NAALADase inhibitor
[4] = molecular target: T2, rat GCPII (Rattus norvegicus, UniProt P70627); conditions: cited from earlier work; for IC50: read-out: IC50 against GCPII
T2 construct: expressed in transfected cells

[5] = molecular target: T1, mGluR3; experiment: mGluR3 receptor activation (cell lines transfected with mGluRs); type: cell-based
From the text: Our studies began from the dipeptide N-acetyl-L-aspartate-L-glutamate (NAAG), a dipeptide that is quite abundant in the brain, and which is believed to act as a transmitter or co-transmitter in the central nervous system, much like glutamate itself. […] 69, 174(1997)]. Recently, a brain enzyme was identified that is specific for the cleavage of N-acetylated α-linked acidic dipeptides, and as a result this enzyme was named NAALADase [J. Biol. Chem., 1987, 262, 14498].

[6] = tested on: NMDA toxicity in cortical neuronal cells; experiment: NMDA toxicity model C: cortical neurons given medium from drug-treated glial cells, LDH release; type: cell-based, mice; conditions: for Neuroprotection against NMDA toxicity: model C protocol, 1 μM, LDH at 24 hours
Method: as §1
This was done using a published protocol in which cultures of cortical glial cells are first treated with the test compound in order to induce the release of protective factors into the medium. In parallel, cultures of cortical neurons (without glia) are exposed for 10 min to the excitotoxic action of NMDA (20 μM). The NMDA is removed by washing, and the neurons are treated with the medium collected from the treated glial cells. Toxicity is then assessed 24 hours after NMDA treatment by the measurement of lactate dehydrogenase (LDH) activity, which serves as a marker for dying cells. […] Among the potent GCPII inhibitors tested, three compounds [HO2C(CH2)2CH(CO2H)CH2]2P(O)(OH), (S)-Glu-C(O)-(S)Glu, and (S)-Asp-C(O)-(S)Glu produced at 1 μM a similarly modest neuroprotection ranging from 21% to 31%. In contrast, the two Cys-containing compounds, (t-Bu)Cys-C(O)-(S)-Glu and (S)-Cys-C(O)-(S)-Glu, produced 69% and 50% neuroprotection, respectively. While the exact mechanism of this neuroprotective effect cannot be explained based entirely upon GCPII inhibition, these exciting results warrant further study in other models of in vitro toxicity, including the assessment of the compounds' effects in vivo.

[7] = tested on: NMDA-induced cell death; conditions: other in vitro models; cited from earlier work
[8] = tested on: transient middle cerebral artery occlusion; conditions: cited from earlier work
[9] = molecular target: T2, rat GCPII; experiment: Inhibition of rat GCPII stably expressed in CHO cells; type: biochemical; conditions: for IC50: read-out: IC50 against expressed rat GCPII
[10] = tested on: NMDA toxicity in cultures of cortical neurons; experiment: NMDA toxicity model A: cortical neurons without glial cells, LDH release; type: cell-based, mice; conditions: 10 μM, NMDA 75 μM
Method: as §1

[11] = tested on: U-87 glioblastoma multiforme cells; experiment: Antiangiogenesis in s.c. glioblastoma xenografts (vWF staining); type: in vivo; conditions: 100 μM, 0.1 mL once daily into base of xenograft, harvested at 7 days
Method: Implanted xenografts were formed by s.c. inoculation with 2×10^6 U-87 glioblastoma multiforme cells mixed with 0.5 mg Matrigel. FN11 was dissolved in PBS to a concentration of either 10 or 100 μM, and injections (0.1 mL) were made once daily into the base of the s.c. implanted xenografts. The starting volumes of the tumors were approximately 250 mm^3. The results from this protocol are depicted in FIG. 15.
Control tumors and tumors grown under the conditions described in Example 21 were harvested at the end of 7 days, fixed in formalin and embedded in paraffin for sectioning. Tissue was stained immunohistochemically for von Willebrand's factor (vWF) to obtain a measure of vascularization. FIGS. 13 and 14 present the results of this protocol for the tumor treated with FN11 at 100 μM. FIG. 13 was taken at low magnification (100×), whereas FIG. 14 was taken at high magnification (400×).

T1 sequence (P31422 23-879): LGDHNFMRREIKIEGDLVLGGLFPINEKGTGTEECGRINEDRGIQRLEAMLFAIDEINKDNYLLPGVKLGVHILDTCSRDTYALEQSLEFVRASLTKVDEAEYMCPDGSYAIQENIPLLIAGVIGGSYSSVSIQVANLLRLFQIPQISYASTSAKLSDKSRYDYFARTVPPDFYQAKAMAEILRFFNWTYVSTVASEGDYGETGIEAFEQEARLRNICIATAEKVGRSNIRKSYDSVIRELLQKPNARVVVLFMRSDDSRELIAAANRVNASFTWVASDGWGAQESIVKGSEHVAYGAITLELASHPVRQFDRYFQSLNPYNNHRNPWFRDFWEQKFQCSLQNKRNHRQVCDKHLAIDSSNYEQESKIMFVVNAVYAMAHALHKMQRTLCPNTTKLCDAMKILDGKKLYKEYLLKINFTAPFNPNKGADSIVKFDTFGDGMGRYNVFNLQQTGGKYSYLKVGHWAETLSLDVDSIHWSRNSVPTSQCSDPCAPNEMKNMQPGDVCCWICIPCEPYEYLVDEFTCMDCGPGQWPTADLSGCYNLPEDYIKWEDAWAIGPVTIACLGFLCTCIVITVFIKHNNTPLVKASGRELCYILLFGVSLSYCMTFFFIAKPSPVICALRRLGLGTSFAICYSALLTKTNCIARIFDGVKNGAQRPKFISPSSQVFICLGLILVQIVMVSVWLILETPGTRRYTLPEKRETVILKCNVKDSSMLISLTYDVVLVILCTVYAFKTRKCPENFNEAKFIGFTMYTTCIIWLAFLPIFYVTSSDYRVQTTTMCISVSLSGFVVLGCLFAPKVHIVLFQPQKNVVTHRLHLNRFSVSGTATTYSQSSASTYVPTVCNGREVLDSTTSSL
T2 sequence (P70627 whole entry): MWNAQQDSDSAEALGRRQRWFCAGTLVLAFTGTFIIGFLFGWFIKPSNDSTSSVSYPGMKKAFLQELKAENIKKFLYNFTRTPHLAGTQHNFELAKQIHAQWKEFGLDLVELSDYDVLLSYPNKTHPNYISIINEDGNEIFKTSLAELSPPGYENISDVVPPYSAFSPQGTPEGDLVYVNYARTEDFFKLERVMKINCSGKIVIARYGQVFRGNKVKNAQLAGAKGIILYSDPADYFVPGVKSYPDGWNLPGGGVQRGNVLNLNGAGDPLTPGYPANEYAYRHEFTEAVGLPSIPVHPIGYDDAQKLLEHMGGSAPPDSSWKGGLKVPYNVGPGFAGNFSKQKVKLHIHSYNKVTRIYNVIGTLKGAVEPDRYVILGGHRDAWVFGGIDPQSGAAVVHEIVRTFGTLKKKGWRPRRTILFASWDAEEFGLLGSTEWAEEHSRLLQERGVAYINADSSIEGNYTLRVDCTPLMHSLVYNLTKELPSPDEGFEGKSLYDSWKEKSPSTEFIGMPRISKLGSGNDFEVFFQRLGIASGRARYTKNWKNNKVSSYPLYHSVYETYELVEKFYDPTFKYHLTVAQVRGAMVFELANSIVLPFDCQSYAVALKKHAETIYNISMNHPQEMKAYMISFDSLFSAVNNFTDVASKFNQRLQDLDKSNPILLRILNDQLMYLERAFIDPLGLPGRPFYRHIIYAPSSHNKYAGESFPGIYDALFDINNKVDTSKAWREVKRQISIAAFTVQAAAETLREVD
Sequence of NAALADase (P70627 whole entry): as above

**Q.** For O=C(O)CCC(CP(=O)(O)CC(CCC(=O)O)C(=O)O)C(=O)O (racemic) [FN6, 4,4′-phosphinicobis(butane-1,3-dicarboxylic acid)], which EC50 ([1]; previous work, read-out: mGluR3 selective agonist potency) is on record?
**A.** ~30000 nM

**Q.** And the Neuroprotection ([2]; 300 μM)?
**A.** about 30%

**Q.** And the IC50 [3]?
**A.** 4 nM

**Q.** What about the IC50 ([4]; previous work, listed as PBBDA) of the same molecule?
**A.** 21.7 ± 2.1 nM

**Q.** And the IC50 ([4]; previous work, listed as [HO2C(CH2)2CH(CO2H)CH2]2P(O)(OH))?
**A.** 26 nM

**Q.** Which “inhibition of GCPII” value ([4]; at 100 μM, dipeptide, published data for comparison) does the source give for N[C@@H](CC(=O)O)C(=O)N[C@@H](CC(=O)O)C(=O)O [(S)-Asp-(S)-Asp, reference compound] (H-Asp-Asp-OH) here?
**A.** 42% inhibition at 100 μM

**Q.** And the IC50 ([4]; published data, ref. 6a)?
**A.** 58000 nM

**Q.** For CC(C)(C)NC(=O)N[C@@H](CCC(=O)O)C(=O)O (hydrate or solvate) [PC113], which melting point is on record?
**A.** 108 to 110 °C

**Q.** For “2-(phosphomethyl)pentanedioic acid [PMPA, reference compound]”, which “mGluR3 activity (in words)” value [5] is on record?
**A.** act as an agonist at mGluR3

**Q.** What about the “Neuroprotection against NMDA toxicity” value ([6]; NMDA 20 μM) of the same molecule?
**A.** about 25%

**Q.** And the “Neuroprotection (in words)” value ([6]; model C, compared with FN6 enantiomers)?
**A.** less effective

**Q.** What about the “Neuroprotection against NMDA-induced cell death” value [7] of the same molecule?
**A.** 16%

**Q.** What about the “Glutamate and NAAG levels (in words)” value ([8]; rat MCAO model) of the same molecule?
**A.** decreased glutamate levels while increasing NAAG levels

**Q.** And the “Protection against injury (in words)” value ([8]; rats, Slusher et al.)?
**A.** significant protection against injury

**Q.** For O=C(NC(CS)C(=O)O)NC(CS)C(=O)O [(S)-Cys-C(O)-(S)-Cys], which “GCPII inhibitory activity (in words)” value ([9]; tested at 1 μM) is on record?
**A.** Inactive at 1 μM

**Q.** With O=C(O)C[C@H](NC(=O)N[C@@H](CC(=O)O)C(=O)O)C(=O)O [PC103] as the molecule, how does the IC50 [9] read?
**A.** 3800 nM

**Q.** For O=C(O)CCC(CC(=O)CC(CCC(=O)O)C(=O)O)C(=O)O (stereo not shown) [A], which “mGluR3 activity (in words)” value [5] is on record?
**A.** retained significant mGluR3 activity

**Q.** With O=C(O)CC[C@H](NC(=O)N[C@H](CCC(=O)O)C(=O)O)C(=O)O [FN16] as the molecule, how does the inhibition at 100 µM ([9]; read-out: inhibition of expressed rat GCPII) read?
**A.** 97%

**Q.** For O=C(O)CC[C@@H](NC(=O)N[C@H](CCC(=O)O)C(=O)O)C(=O)O [FN13], which Neuroprotection ([6]; model C, 100 μM) is on record?
**A.** about 20%

**Q.** With O=C(O)CC[C@H](NC(=O)C(=O)N[C@@H](CCC(=O)O)C(=O)O)C(=O)O [(S)-Glu-C(O)-C(O)-(S)-Glu] as the molecule, how does the “GCPII inhibitory activity (in words)” value [9] read?
**A.** inactive

**Q.** And the “inhibition of expressed rat GCPII” value ([9]; at 1 μM)?
**A.** 9% inbibition at 1 μM

**Q.** With O=C(O)CC[C@H](NC(=O)N[C@@H](CC(=O)O)C(=O)O)C(=O)O [PC107] as the molecule, how does the IC50 ([9]; listed as (S)-Asp-C(O)-(S)-Glu) read?
**A.** 46 nM and 46.1 nM

**Q.** Which EC50 ([1]; cell lines transfected with mGluR1-6, read-out: EC50 for activation of mGluR3) does the source give for CC(=O)N[C@@H](CC(=O)O)C(=O)N[C@@H](CCC(=O)O)C(=O)O [NAAG, N-acetyl-L-aspartate-L-glutamate, reference compound] (Ac-Asp-Glu-OH) here?
**A.** 65000 ± 20000 nM

**Q.** What does the source list for O=C(O)CC[C@H](NC(=O)NCC(=O)O)C(=O)O [PC108]?
**A.** GCPII inhibitory activity (in words) [9]: inactive; inhibition at 1 µM ([9]; at 1 μM): 46%

**Q.** Which results are given for NC1(C(=O)O)CC2CC1C2C(=O)O (stereo not shown) [ABHxD-I, 2-aminobicyclo 2.1.1 hexahe-2.5-dicarboxylic acid, reference compound]?
**A.** Reduction of the toxic effect of NMDA ([2]; 10 μM, NMDA 75 μM): over 40%; Protection against NMDA toxicity (in words) [10]: not able to protect against NMDA toxicity; Protection against NMDA toxicity (in words) ([6]; model C, 10 μM, NMDA 20 μM): as effective as in model B

**Q.** For O=C(O)CC[C@H](NC(=O)N[C@@H](CS)C(=O)O)C(=O)O [PC118], which “GCPII inhibitory activity (in words)” value [9] is on record?
**A.** nearly as potent as (S)-Glu-C(O)-(S)-Glu

**Q.** What about the IC50 [9] of the same molecule?
**A.** 72.4 ± 6.5 nM

**Q.** What about the “Neuroprotection against NMDA toxicity” value ([6]; NMDA 20 μM) of the same molecule?
**A.** 50%

**Q.** For O=C(O)C[C@H](NC(=O)N[C@@H](CC(=O)O)C(=O)O)C(=O)O (hydrate or solvate) [PC103], which melting point is on record?
**A.** > 142 °C

**Q.** Which IC50 [9] does the source give for CC(C)(C)SC[C@H](NC(=O)N[C@@H](CCC(=O)O)C(=O)O)C(=O)O [PC120] here?
**A.** 101 ± 19.3 nM

**Q.** What about the Ki ([9]; read-out: Ki against GCPII) of the same molecule?
**A.** ~100 nM

**Q.** What about the “Neuroprotection against NMDA toxicity” value ([6]; NMDA 20 μM) of the same molecule?
**A.** 69%

**Q.** For N[C@@H](CCC(=O)O)C(=O)N[C@@H](CCC(=O)O)C(=O)O [(S)-Glu-(S)-Glu, reference compound] (H-Glu-Glu-OH), which “fold less potent than (S)Glu-C(O)-(S)Glu at GCPII” value [9] is on record?
**A.** 16 fold

**Q.** Which “GCPII inhibitory activity (in words)” value [9] does the source give for CC(C)(C)NC(=O)N[C@@H](CCC(=O)O)C(=O)O [PC113] here?
**A.** inactive

**Q.** What about the inhibition at 1 µM ([9]; at 1 μM) of the same molecule?
**A.** 10%

**Q.** With O=C(O)CC[C@H](NC(=O)N[C@@H](CCC(=O)O)C(=O)O)C(=O)O [FN11] as the molecule, how does the IC50 [9] read?
**A.** 47 nM

**Q.** What about the “Vascularization of tumor (von Willebrand's factor staining)” value [11] of the same molecule?
**A.** preponderance of avascular and low vascular areas
